Data: patent US11530244B2, “Cyclic polypeptides for PCSK9 inhibition” (priority 2018, dated 2022)
Starred links: 1 amine or outer side, 2 acyl side, 3 side chain; linkers in the order of their positions; H or OH if unused. Positions of bridges follow the written chain, without caps; N, C: chain ends. Non-standard residues stand in square brackets, D forms with d. Residues, ends and D or L forms follow the SMILES beside them. *: point of attachment. Trp(5-F) = N[C@@H](Cc1c[nH]c2ccc(F)cc12)C(=O)O; Phe(4-CH2NH2) = NCc1ccc(C[C@H](N)C(=O)O)cc1; Pro(cis-4-F) = O=C(O)[C@@H]1C[C@H](F)CN1; mXylylene = c1cc(C[*:1])cc(C[*:2])c1; AEF = NCCOc1ccc(C[C@H](N)C(=O)O)cc1; X48 = CC(N[*:1])c1ncc(C(=O)[*:2])s1; Suc = O=C(CCC(=O)[*:2])[*:1]; αMeP = C[C@@]1(C(=O)O)CCCN1; Isobutyryl = CC(C)C(=O)*; Orn = NCCC[C@H](N)C(=O)O; X2 = O=C(C[*:2])[*:1]; Mpa = O=C(O)CCS

Key:
PCSK9 [1] = target: T1, PCSK9 (Homo sapiens (Human), UniProt Q8NBP7); assay: PCSK9 Alexa FRET Standard assay (displacement of AlexaFluor647 tagged cyclic peptide Reagent A); format: binding; conditions: 0.5 nM PCSK9, 20 nM AF cyclic peptide Reagent A
T1 sequence (Q8NBP7 153-692): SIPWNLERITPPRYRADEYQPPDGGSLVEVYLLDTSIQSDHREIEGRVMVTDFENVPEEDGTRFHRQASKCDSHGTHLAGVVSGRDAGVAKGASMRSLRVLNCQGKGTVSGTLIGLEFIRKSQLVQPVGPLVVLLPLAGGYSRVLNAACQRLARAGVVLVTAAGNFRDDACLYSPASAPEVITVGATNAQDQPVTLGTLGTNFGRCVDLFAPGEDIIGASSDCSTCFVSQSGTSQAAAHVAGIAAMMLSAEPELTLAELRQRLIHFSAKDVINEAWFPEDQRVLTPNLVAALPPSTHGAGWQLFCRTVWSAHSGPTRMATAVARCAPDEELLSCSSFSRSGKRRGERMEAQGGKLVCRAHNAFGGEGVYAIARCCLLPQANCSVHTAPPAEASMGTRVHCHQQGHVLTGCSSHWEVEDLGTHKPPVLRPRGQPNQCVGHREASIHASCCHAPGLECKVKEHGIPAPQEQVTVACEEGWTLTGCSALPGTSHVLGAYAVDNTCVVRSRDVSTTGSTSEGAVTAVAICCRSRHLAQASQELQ
How it was run: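 TR-FRET displacement: 0.5 nM biotinylated PCSK9 with 1.25 nM Strep-Eu and 20 nM AlexaFluor-tagged cyclic peptide (final) in 50 mM HEPES pH 7.4, 0.15 M NaCl, 5 mM CaCl2, 0.01% BSA, 0.01% P20, ≥2 h at room temperature. IC50 from sigmoidal fit, converted to Ki via peptide KD; falling Eu counts flagged false positives.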

PCSK9 [2] = target: T1, PCSK9; assay: PCSK9 Alexa FRET Plus assay (displacement of AlexaFluor647 tagged cyclic peptide Reagent B); format: binding; conditions: 0.5 nM PCSK9, 960 nM AF cyclic peptide Reagent B
How it was run: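 TR-FRET displacement with final 0.5 nM biotinylated PCSK9, 1.25 nM Strep-Eu and 960 nM AlexaFluor-tagged cyclic peptide in HEPES pH 7.4, NaCl, CaCl2, BSA, P20; ≥2 h at room temperature. IC50 from sigmoidal fit, converted to Ki using peptide KD. Falling europium counts flagged false positives.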

[3] = PCSK9 Alexa FRET Standard assay, read-out: IC50
[4] = Alexa FRET Plus, read-out: IC50

Row | SMILES | IC50 (PCSK9 [1]; [3]) [nM] | IC50 (PCSK9 [2]; [4]) [nM] | IC50 (PCSK9 [1]; IC50, PCSK9 Alexa FRET Standard assay) [nM] | IC50 (PCSK9 [2]; IC50, Alexa FRET Plus) [nM]
1 | CCCCCCCCCCCCCCCC(=O)N[C@@H](CCC(=O)NCCOCCOCCC(=O)NCCOCCOCC(=O)NCCCC[C@H](NC(=O)COCCOCCOCCOCCOCCOCCOCCOCCOCCOCCOCCOCCNC(=O)[C@@H]1CSCc2cccc(c2)CSCCC(=O)N[C@@H](CCCCN)C(=O)N[C@H](C)C(=O)N[C@@H](Cc2c[nH]c3ccc(F)cc23)C(=O)N[C@@H](Cc2c[nH]c3ccc(F)cc23)C(=O)N[C@@H](CC(=O)O)C(=O)N[C@@H](Cc2cnc[nH]2)C(=O)N[C@@H](Cc2ccc(O)cc2)C(=O)N2CCC[C@@]2(C)C(=O)N1)C(N)=O)C(=O)O [Compound 474] | 1000 to 12100 | 500 to 5000 | – | –
2 | CC1NC(=O)[C@H](Cc2c[nH]c3ccc(F)cc23)NC(=O)[C@H](Cc2c[nH]c3ccc(F)cc23)NC(=O)[C@@H](C)NC(=O)[C@H](CCCCN)NC(=O)CCSCc2cccc(c2)CSC[C@@H](C(N)=O)NC(=O)[C@]2(C)CCCN2C(=O)[C@H](Cc2ccc(O)cc2)NC(=O)C2=CN=C1S2 (some centres unmarked) [Compound 480] ([Mpa]K[dA][Trp(5-F)][Trp(5-F)][X48]Y[αMeP]C-NH2; linker 1-9 via mXylylene) | 100 to 1000 | 500 to 5000 | – | –
3 | CC(=O)N[C@@H]1CCCC/C=C\CO[C@H]2C[C@@H](C(N)=O)N(C2)C(=O)[C@H](Cc2ccc(O)cc2)NC(=O)[C@H](Cc2cnc[nH]2)NC(=O)[C@H](CC(=O)O)NC(=O)[C@H](Cc2c[nH]c3ccc(F)cc23)NC(=O)[C@H](Cc2c[nH]c3ccc(F)cc23)NC(=O)CNC1=O [Compound 422] | 0.11 to 100 | 100 to 500 | – | –
4 | C[C@@]12CCCN1C(=O)[C@H](Cc1ccc(O)cc1)NC(=O)CN1C(=O)[C@H](COc3ccccc31)NC(=O)[C@H](Cc1c[nH]c3ccc(F)cc13)NC(=O)[C@H](Cc1c[nH]c3ccc(F)cc13)NC(=O)CNC(=O)[C@H](CCCCN)NC(=O)CCSCc1cccc(c1)CSC[C@@H](C(N)=O)NC2=O [Compound 126] | 0.11 to 100 | 0.1 to 100 | – | –
5 | COc1ccc(C[C@@H]2NC(=O)[C@H]([C@@H](C)O)NC(=O)[C@@H]3C[C@H](F)CN3C(=O)[C@H](Cc3c[nH]c4ccc(F)cc34)NC(=O)[C@H](Cc3c[nH]c4ccc(F)cc34)NC(=O)[C@@H](C)NC(=O)[C@H](CCCCN)NC(=O)[C@@H](NC(C)=O)CCCNC(=O)COc3ccc(cc3)C[C@@H](C(N)=O)NC(=O)[C@]3(C)CCCN3C2=O)cc1 [Compound 091] (Ac-[Orn]K[dA][Trp(5-F)][Trp(5-F)][Pro(cis-4-F)]TY(Me)[αMeP]Y-NH2; linker 1-10 via X2) | 0.11 to 100 | 100 to 500 | – | –
6 | COc1ccc(C[C@@H]2NC(=O)[C@@H]3CCCC/C=C\CC[C@@]4(CCCN4C2=O)C(=O)NCCSCc2cccc(c2)CSCCC(=O)N[C@@H](C)C(=O)N[C@H](C)C(=O)N[C@H]2Cc4cccc(c4)CNC(=O)CC[C@@H](C(=O)N3)N3C(=O)[C@@H](NC2=O)C3c2c[nH]c3ccc(F)cc23)cc1 (some centres unmarked) [Compound 524] | 100 to 1000 | 500 to 5000 | – | –
7 | COc1ccc(C[C@@H]2NC(=O)[C@H]([C@@H](C)O)NC(=O)[C@@H]3C[C@H](F)CN3C(=O)[C@H](Cc3c[nH]c4ccc(F)cc34)NC(=O)[C@H](Cc3c[nH]c4ccc(F)cc34)NC(=O)[C@@H](C)NC(=O)[C@H](CCCCN)NC(=O)[C@@H](NC(=O)C(C)C)CC(=O)NCCOc3ccc(cc3)C[C@@H](C(N)=O)NC(=O)[C@]3(C)CCCN3C2=O)cc1 [Compound 123] (Isobutyryl-DK[dA][Trp(5-F)][Trp(5-F)][Pro(cis-4-F)]TY(Me)[αMeP][AEF]-NH2; lactam 1-10) | 0.11 to 100 | 0.1 to 100 | – | –
8 | C[C@@]12CCCN1C(=O)[C@H](Cc1ccc(O)cc1)NC(=O)CN1C(=O)[C@H](N=C(c3ccccc3)c3ccccc31)NC(=O)[C@H](Cc1c[nH]c3ccc(F)cc13)NC(=O)[C@H](Cc1c[nH]c3ccc(F)cc13)NC(=O)CNC(=O)[C@H](CCCCN)NC(=O)CCSCc1cccc(c1)CSC[C@@H](C(N)=O)NC2=O [Compound 121] | – | – | 0.11 to 100 | 0.1 to 100
9 | COc1ccc(C[C@@H]2NC(=O)[C@H]([C@@H](C)O)NC(=O)[C@@H]3C[C@H](F)CN3C(=O)[C@H](Cc3c[nH]c4ccc(F)cc34)NC(=O)[C@H](Cc3c[nH]c4ccc(F)cc34)NC(=O)[C@@H](C)NC(=O)[C@H](CCCCN)NC(=O)CCC(=O)NCc3ccc(cc3)C[C@@H](C(N)=O)NC(=O)[C@]3(C)CCCN3C2=O)cc1 [Compound 097] (K[dA][Trp(5-F)][Trp(5-F)][Pro(cis-4-F)]TY(Me)[αMeP][Phe(4-CH2NH2)]-NH2; linker N-9 via Suc) | 0.11 to 100 | 500 to 5000 | – | –
10 | C[C@@]12CCCN1C(=O)[C@H](Cc1ccc(O)cc1)NC(=O)[C@H]1CS[C@H]3CC[C@H](NC(=O)[C@H](Cc4c[nH]c5ccc(F)cc45)NC(=O)[C@H](Cc4c[nH]c5ccc(F)cc45)NC(=O)CNC(=O)[C@H](CCCCN)NC(=O)CCSCc4cccc(c4)CSC[C@@H](C(N)=O)NC2=O)C(=O)N31 [Compound 475] | 21000 to 50000 | 500 to 5000 | – | –
